# According to patent publication US20200231614A1, “PSMA TARGETED RADIOHALOGENATED UREAS FOR CANCER RADIOTHERAPY” (THE JOHNS HOPKINS UNIVERSITY, priority 2015, published 2020):
# Read-outs that look alike come from different tables or passages of the source.
# System: PSMA + PC-3 PiP and PSMA − PC-3 flu tumor xenografts
# Conditions: for Biodistribution: PC-3 PiP: PSMA+ tumor xenograft; for Biodistribution: PC-3 flu: PSMA− tumor xenograft
# [1] = 21 H post-injection, comparative Table 13
smiles,measurement,setting,value
N=C(N)NCc1ccc(C(=O)NCCCCC(NC(=O)CCCCCCC(=O)NCCCC[C@H](NC(=O)N[C@@H](CCC(=O)O)C(=O)O)C(=O)O)C(=O)O)cc1[131I] (stereo partly shown) [[^131I] labeled PSMA-904],Biodistribution: Lrg Int.,1 H post-injection,0.50 ± 0.65 % ID/g
same,Biodistribution: Sm int.,1 H post-injection,33.81 ± 6.36 % ID/g
same,Biodistribution: bladder,1 H post-injection,0.71 ± 0.23 % ID/g
same,Biodistribution: blood,1 H post-injection,0.46 ± 0.17 % ID/g
same,Biodistribution: heart,1 H post-injection,0.46 ± 0.18 % ID/g
same,Biodistribution: kidney,1 H post-injection,121 ± 23.8 % ID/g
same,Biodistribution: liver,1 H post-injection,5.16 ± 3.81 % ID/g
same,Biodistribution: lung,1 H post-injection,1.39 ± 0.36 % ID/g
same,Biodistribution: muscle,1 H post-injection,0.31 ± 0.14 % ID/g
same,Biodistribution: spleen,1 H post-injection,9.83 ± 3.28 % ID/g
same,Biodistribution: stomach,1 H post-injection,0.73 ± 0.26 % ID/g
same,Biodistribution: thyroid,1 H post-injection,0.11 ± 0.13 % ID/g
same,Biodistribution: Lrg Int.,2 H post-injection,21.3 ± 15.9 % ID/g
same,Biodistribution: Sm int.,2 H post-injection,14.2 ± 12.0 % ID/g
same,Biodistribution: bladder,2 H post-injection,0.64 ± 0.25 % ID/g
same,Biodistribution: blood,2 H post-injection,0.18 ± 0.07 % ID/g
same,Biodistribution: heart,2 H post-injection,0.27 ± 0.14 % ID/g
same,Biodistribution: kidney,2 H post-injection,110 ± 37.2 % ID/g
same,Biodistribution: liver,2 H post-injection,3.48 ± 2.35 % ID/g
same,Biodistribution: lung,2 H post-injection,0.81 ± 0.37 % ID/g
same,Biodistribution: muscle,2 H post-injection,0.13 ± 0.03 % ID/g
same,Biodistribution: spleen,2 H post-injection,3.41 ± 2.01 % ID/g
same,Biodistribution: stomach,2 H post-injection,1.03 ± 0.62 % ID/g
same,Biodistribution: thyroid,2 H post-injection,0.31 ± 0.23 % ID/g
same,Biodistribution: Lrg Int.,21 H post-injection,14.5 ± 8.08 % ID/g
same,Biodistribution: Sm int.,21 H post-injection,0.87 ± 0.92 % ID/g
same,Biodistribution: bladder,21 H post-injection,0.07 ± 0.09 % ID/g
same,Biodistribution: blood,21 H post-injection,0.02 ± 0.01 % ID/g
same,Biodistribution: heart,21 H post-injection,0.02 ± 0.01 % ID/g
same,Biodistribution: kidney,21 H post-injection,3.03 ± 2.96 % ID/g
same,Biodistribution: liver,21 H post-injection,0.24 ± 0.39 % ID/g
same,Biodistribution: lung,21 H post-injection,0.03 ± 0.01 % ID/g
same,Biodistribution: muscle,21 H post-injection,0.03 ± 0.02 % ID/g
same,Biodistribution: spleen,21 H post-injection,0.16 ± 0.07 % ID/g
same,Biodistribution: stomach,21 H post-injection,1.98 ± 3.10 % ID/g
same,Biodistribution: thyroid,21 H post-injection,0.42 ± 0.35 % ID/g
same,Biodistribution: PC-3 PiP,1 H post-injection,27.6 ± 7.59 % ID/g
same,Biodistribution: PC-3 PiP,2 H post-injection,24.7 ± 9.77 % ID/g
same,Biodistribution: PC-3 PiP,21 H post-injection,19.2 ± 7.28 % ID/g
same,Biodistribution: PC-3 flu,1 H post-injection,0.49 ± 0.23 % ID/g
same,Biodistribution: PC-3 flu,2 H post-injection,0.22 ± 0.06 % ID/g
same,Biodistribution: PC-3 flu,21 H post-injection,0.02 ± 0.01 % ID/g
O=C(O)CC[C@H](NC(=O)N[C@@H](CCC(=O)NCCc1ccc([131I])cc1)C(=O)O)C(=O)O [[^131I]HS-549],Biodistribution: Lrg Int.,1 H post-injection,0.52 ± 0.12 % ID/g
same,Biodistribution: Sm int.,1 H post-injection,1.98 ± 0.30 % ID/g
same,Biodistribution: bladder,1 H post-injection,4.34 ± 2.16 % ID/g
same,Biodistribution: blood,1 H post-injection,5.90 ± 1.05 % ID/g
same,Biodistribution: heart,1 H post-injection,2.30 ± 0.63 % ID/g
same,Biodistribution: kidney,1 H post-injection,106 ± 18.9 % ID/g
same,Biodistribution: liver,1 H post-injection,21.2 ± 4.14 % ID/g
same,Biodistribution: lung,1 H post-injection,4.60 ± 1.09 % ID/g
same,Biodistribution: muscle,1 H post-injection,0.86 ± 0.26 % ID/g
same,Biodistribution: spleen,1 H post-injection,6.76 ± 3.42 % ID/g
same,Biodistribution: stomach,1 H post-injection,0.92 ± 0.20 % ID/g
same,Biodistribution: thyroid,1 H post-injection,1.17 ± 0.43 % ID/g
same,Biodistribution: Lrg Int.,2 H post-injection,1.32 ± 0.25 % ID/g
same,Biodistribution: Sm int.,2 H post-injection,2.42 ± 0.40 % ID/g
same,Biodistribution: bladder,2 H post-injection,2.34 ± 1.04 % ID/g
same,Biodistribution: blood,2 H post-injection,2.92 ± 0.32 % ID/g
same,Biodistribution: heart,2 H post-injection,1.14 ± 0.18 % ID/g
same,Biodistribution: kidney,2 H post-injection,96.6 ± 39.1 % ID/g
same,Biodistribution: liver,2 H post-injection,26.0 ± 3.09 % ID/g
same,Biodistribution: lung,2 H post-injection,2.73 ± 0.66 % ID/g
same,Biodistribution: muscle,2 H post-injection,0.46 ± 0.12 % ID/g
same,Biodistribution: spleen,2 H post-injection,2.71 ± 0.85 % ID/g
same,Biodistribution: stomach,2 H post-injection,0.47 ± 0.17 % ID/g
same,Biodistribution: thyroid,2 H post-injection,0.69 ± 0.29 % ID/g
same,tumor/kidney ratio,2 H post-injection,0.8
same,Biodistribution: Lrg Int.,21 H post-injection,0.63 ± 0.39 % ID/g
same,Biodistribution: Sm int.,21 H post-injection,0.37 ± 0.06 % ID/g
same,Biodistribution: bladder,21 H post-injection,0.65 ± 0.20 % ID/g
same,Biodistribution: blood,21 H post-injection,1.39 ± 0.35 % ID/g
same,Biodistribution: heart,21 H post-injection,0.41 ± 0.09 % ID/g
same,Biodistribution: kidney,21 H post-injection,3.13 ± 1.65 % ID/g
same,Biodistribution: liver,21 H post-injection,1.86 ± 0.51 % ID/g
same,Biodistribution: lung,21 H post-injection,0.87 ± 0.27 % ID/g
same,Biodistribution: muscle,21 H post-injection,0.16 ± 0.04 % ID/g
same,Biodistribution: spleen,21 H post-injection,0.29 ± 0.12 % ID/g
same,Biodistribution: stomach,21 H post-injection,0.14 ± 0.04 % ID/g
same,Biodistribution: thyroid,21 H post-injection,0.36 ± 0.05 % ID/g
same,tumor/kidney ratio,21 H post-injection,7.2
same,Non-target organ uptake: spleen,[1],0.3 % D/g
same,Non-target organ uptake: stomach,[1],0.14 % D/g
same,Non-target organ uptake: thyroid,[1],0.36 % D/g
same,Biodistribution: PC-3 PiP,1 H post-injection,78.1 ± 19.1 % ID/g
same,Biodistribution: PC-3 PiP,2 H post-injection,74.7 ± 13.1 % ID/g
same,Biodistribution: PC-3 PiP,21 H post-injection,22.6 ± 22.1 % ID/g
same,Biodistribution: PC-3 flu,1 H post-injection,2.21 ± 0.53 % ID/g
same,Biodistribution: PC-3 flu,2 H post-injection,1.51 ± 0.30 % ID/g
same,Biodistribution: PC-3 flu,21 H post-injection,0.44 ± 0.18 % ID/g
same,PSMA positive tumor uptake (in words),"biodistributions of Tables 2, 3, 9, 10",demonstrated PSMA positive tumor uptake
same,Clearance from the kidneys (in words),compared with [^131I]YC-I-27 and [^211At]YC-I-27,clear from the kidneys giving higher tumor to kidney ratios
